Results as given in ChEMBL document CHEMBL4118125, “MK-8325: A silyl proline-containing NS5A inhibitor with pan-genotype activity for treatment of HCV” (Bioorg Med Chem Lett, 2018).

Tests used:
[1] = Clearance in Sprague-Dawley rat at 2.5 mg/kg, iv by LC-MS/MS method; type: ADME, organism-based; conditions: in vivo
[2] = Volume of distribution at steady state in Sprague-Dawley rat at 2.5 mg/kg, iv by LC-MS/MS method; type: ADME, organism-based; conditions: in vivo, read-out: Vdss
[3] = Effective half life in Sprague-Dawley rat at 2.5 mg/kg, iv by LC-MS/MS method; type: ADME, organism-based; conditions: in vivo, read-out: t1/2eff (converted)
[4] = Terminal half life in Sprague-Dawley rat at 2.5 mg/kg, iv by LC-MS/MS method; type: ADME, organism-based; conditions: in vivo, read-out: beta t1/2 (converted)
[5] = Cmax in Sprague-Dawley rat at 5 mg/kg, po by LC-MS/MS method; type: ADME, organism-based; design: dose 5 mg/kg, route oral; conditions: in vivo
[6] = Tmax in Sprague-Dawley rat at 5 mg/kg, po by LC-MS/MS method; type: ADME, organism-based; conditions: in vivo
[7] = AUC in Sprague-Dawley rat at 5 mg/kg, po by LC-MS/MS method; type: ADME, organism-based; conditions: in vivo
Rattus norvegicus = experiment: Dose normalized AUC in Sprague-Dawley rat at 5 mg/kg, po by LC-MS/MS method; type: ADME, organism-based; conditions: in vivo
[8] = Oral bioavailability in Sprague-Dawley rat at 5 mg/kg by LC-MS/MS method; type: ADME, organism-based; conditions: in vivo
[9] = Clearance in beagle dog at 1 mg/kg, iv by LC-MS/MS method; type: ADME, organism-based, Canis lupus familiaris; conditions: in vivo
[10] = Volume of distribution at steady state in beagle dog at 1 mg/kg, iv by LC-MS/MS method; type: ADME, organism-based, Canis lupus familiaris; conditions: in vivo, read-out: Vdss
[11] = Effective half life in beagle dog at 1 mg/kg, iv by LC-MS/MS method; type: ADME, organism-based, Canis lupus familiaris; conditions: in vivo, read-out: t1/2eff (converted)
[12] = Terminal half life in beagle dog at 1 mg/kg, iv by LC-MS/MS method; type: ADME, organism-based, Canis lupus familiaris; conditions: in vivo, read-out: beta t1/2 (converted)
[13] = Cmax in beagle dog at 2 mg/kg, po by LC-MS/MS method; type: ADME, organism-based, Canis lupus familiaris; design: dose 2 mg/kg, route oral; conditions: in vivo
[14] = Tmax in beagle dog at 2 mg/kg, po by LC-MS/MS method; type: ADME, organism-based, Canis lupus familiaris; conditions: in vivo
[15] = AUC in beagle dog at 2 mg/kg, po by LC-MS/MS method; type: ADME, organism-based, Canis lupus familiaris; conditions: beagle, in vivo
Canis familiaris = experiment: Dose normalized AUC in beagle dog at 2 mg/kg, po by LC-MS/MS method; type: ADME, organism-based, Canis lupus familiaris; conditions: in vivo
[16] = Oral bioavailability in beagle dog at 2 mg/kg by LC-MS/MS method; type: ADME, organism-based, Canis lupus familiaris; conditions: in vivo
[17] = Clearance in cynomolgus monkey at 1 mg/kg, iv by LC-MS/MS method; type: ADME, organism-based, Macaca fascicularis; conditions: in vivo
[18] = Volume of distribution at steady state in cynomolgus monkey at 1 mg/kg, iv by LC-MS/MS method; type: ADME, organism-based, Macaca fascicularis; conditions: in vivo, read-out: Vdss
[19] = Effective half life in cynomolgus monkey at 1 mg/kg, iv by LC-MS/MS method; type: ADME, organism-based, Macaca fascicularis; conditions: in vivo, read-out: t1/2eff (converted)
[20] = Terminal half life in cynomolgus monkey at 1 mg/kg, iv by LC-MS/MS method; type: ADME, organism-based, Macaca fascicularis; conditions: in vivo, read-out: beta t1/2 (converted)
[21] = Cmax in cynomolgus monkey at 2 mg/kg, po by LC-MS/MS method; type: ADME, organism-based, Macaca fascicularis; design: dose 2 mg/kg, route oral; conditions: in vivo
[22] = Tmax in cynomolgus monkey at 2 mg/kg, po by LC-MS/MS method; type: ADME, organism-based, Macaca fascicularis; conditions: in vivo
[23] = AUC in cynomolgus monkey at 2 mg/kg, po by LC-MS/MS method; type: ADME, organism-based, Macaca fascicularis; conditions: in vivo
Cynomolgus monkey = experiment: Dose normalized AUC in cynomolgus monkey at 2 mg/kg, po by LC-MS/MS method; type: ADME, organism-based, Macaca fascicularis; conditions: in vivo
[24] = Oral bioavailability in cynomolgus monkey at 2 mg/kg by LC-MS/MS method; type: ADME, organism-based, Macaca fascicularis; conditions: in vivo
[25] = Oral bioavailability in fasted dog at 2 mg/kg by LC-MS/MS method; type: ADME, organism-based, Canis lupus familiaris; conditions: in vivo
[26] = Drug level in Sprague-Dawley rat at 5 mg/kg, po after 24 hrs by LC-MS/MS method; type: ADME, organism-based; conditions: in vivo, read-out: Drug uptake
[27] = Drug level in beagle dog at 2 mg/kg, po after 24 hrs by LC-MS/MS method; type: ADME, organism-based, Canis lupus familiaris; conditions: in vivo, read-out: Drug uptake
[28] = Drug level in cynomolgus monkey at 2 mg/kg, po after 24 hrs by LC-MS/MS method; type: ADME, organism-based, Macaca fascicularis; conditions: in vivo, read-out: Drug uptake

COC(=O)N[C@H](C(=O)N1CC(F)(F)C[C@H]1c1ncc(-c2ccc(-c3ccc4c(ccc5nc([C@@H]6C[Si](C)(C)CN6C(=O)[C@@H](NC(=O)OC)C(C)C)[nH]c54)c3)cc2)[nH]1)C(C)C.Cl.Cl
clearance [1]: 5.6 mL/min/kg | Vd [2]: 3.7 L/kg | half-life [3]: 7.6 h | half-life [4]: 9.7 h | Cmax [5]: 330 nM | Tmax [6]: 5.3 h | AUC [7]: 5 µM·h | AUC/dose (Rattus norvegicus): 1 µM·h/mg/kg | bioavailability [8]: 28% | clearance [9]: 0.8 mL/min/kg | Vd [10]: 1.3 L/kg | half-life [11]: 18 h | half-life [12]: 26 h | Cmax [13]: 270 nM | Tmax [14]: 2.7 h | AUC [15]: 4.2 µM·h | AUC/dose (Canis familiaris): 2.1 µM·h/mg/kg | bioavailability [16]: 8.7% | clearance [17]: 1.2 mL/min/kg | Vd [18]: 1.7 L/kg | half-life [19]: 17 h | half-life [20]: 20 h | Cmax [21]: 180 nM | Tmax [22]: 4.7 h | AUC [23]: 4 µM·h | AUC/dose (Cynomolgus monkey): 2 µM·h/mg/kg | bioavailability [24]: 11.7% | bioavailability [25]: 9% | concentration at 24 h [26]: 51 nM | concentration at 24 h [27]: 40 nM | concentration at 24 h [28]: 55 nM
